# Key:
# [1] = test system: RPMI-8226, H929, MM.1S and MM.1R MM cell lines; test: Anti-proliferation assay, statements across MM cell lines; type: cell-based, human; details: RPMI-8226, H929, MM.1S and MM.1R MM cell lines
# Procedure: The MM.1S, MM.1R, H929, MOLP-8, EJM, INA-6, ANBL6, KSM-12-PE, OPM2, and RPMI-8226 multiple myeloma cell lines, as well as the Burkitt's lymphoma cell line GA-10 and the non-Hodgkin's lymphoma cell lines Farage, SU-DHL6, and Karpas 422 were cultured at 37° C. and 5% CO2 in RPMI-1640 media supplemented with 10% FBS. ANBL6 and INA-6 culture media was also supplemented with 10 ng/ml IL-6. The OCI-ly10 cell line was cultured using RPMI-1640 media supplemented with 20% human serum. MM.1S, MM.1R, OCI-ly10, Karpas 422, and SU-DHL6 cells were provided by the Dana Farber Cancer Institute. H929, RPMI-8226, GA-10, and Farage cells were from ATCC (Cat #'s CCL-155, CRL-9068, CRL-2392 and CRL-2630 respectively). MOLP-8, EJM, KSM-12-PE, and OPM2 were from DSMZ. The ANBL6 and INA-6 cell lines were provided by the M. D. Anderson Cancer Research Center.
# Compounds were prepared in DMSO at 1000× the highest desired concentration. Master plates were generated consisting of serially diluted compounds in 2- or 3-fold dilutions in 384-well format. For single agent dose response curves, the master plates consisted of 9 individual compounds at 12 concentrations in 2- or 3-fold dilutions. For combination matrices, master plates consisted of individual compounds at 6 or 9 concentrations at 2- or 3-fold dilutions.
# Cells were added to 384-well plates 24 hours prior to compound addition such that each well contained 2000 cells in 35 μL of media. Master plates were diluted 100× (1 μL into 100 μL) into 384-well dilution plates containing only cell culture media. 4.5 μL from each dilution plate was added to each assay plate for a final dilution of 1000×. To obtain combination data, two master plates were diluted into the assay plates. Following compound addition, assay plates were kept at 37° C. and 5% CO2 for 72 hours. Thirty microliters of ATPLite (Perkin Elmer) at room temperature was then added to each well. Final amount of ATP was quantified within 30 minutes using ATPLite luminescent read-out on an Envision 2103 Multilabel Reader (Perkin Elmer). Measurements were taken at the top of the well using a luminescence aperture and a read time of 0.1 seconds per well.
# The Loewe additivity model was used to quantify combination effects. Combinations were ranked initially by Additivity Excess Volume, which is defined as ADD Volume=ΣCX, CY (Idata−ILoewe). where ILoewe(CX, CY) is the inhibition that satisfies (CX/ECX)+(CY/ECY)=1, and ECX,Y are the effective concentrations at ILoewe for the single agent curves. A “Synergy Score” was also used, where the Synergy Score S=log fX log fY ΣIdata(Idata−ILoewe), summed over all non-single-agent concentration pairs, and where log fX,Y is the natural logarithm of the dilution factors used for each single agent. This effectively calculates a volume between the measured and Loewe additive response surfaces, weighted towards high inhibition and corrected for varying dilution factors. An uncertainty σS was calculated for each synergy score, based on the measured errors for the Idata values and standard error propagation.
# patient CLL cells = test: Apoptosis assay (Hoechst 33342, flow cytometry, 48 h); type: cell-based, human; parameters: unit not given here
# Source text: Blood samples were obtained in heparinized tubes with IRB-approved consent from flow cytometry-confirmed B-CLL patients that were either untreated or for whom at least 1 month had elapsed since chemotherapy. Patients with active infections or other serious medical conditions were not included in this study. Patients with white blood cell counts of less than 15,000/μl by automated analysis were excluded from this study. Whole blood was layered on Ficoll-Hystopaque (Sigma), and peripheral blood mononuclear cells (PBMC) isolated after centrification. […] One million cells were stained with anti-CD5-PE and anti-CD19-PE-Cy5 (Becton Dickenson, Franklin Lakes N.J.). The percentage of B-CLL cells was defined as the percentage of cells doubly expressing CD5 and CDl9, as determined by flow cytometry. […] Compound master plates were diluted 1:50 into complete media to create working compound dilutions. Compound crosses were then created by diluting two working dilution plates 1:10 into each plate of cells. […] Hoechst 33342 (Molecular Probes, Eugene Oreg.) at a final concentration of 0.25 μg/1 mL was added to each well, and the cells incubated at 37° C. for an additional ten minutes before being placed on ice until analysis. Plates were then analyzed on a LSR-II flow cytometer (Becton Dickenson, Franklin Lakes, N.J.) equipped with the High Throughput Sampling (HTS) option in high throughput mode. […] The apoptotic fraction was calculated using FlowJo software (Tree Star Inc., Ashland, Oreg.) after excluding debris by a FSC/SSC gate and subsequently gating for cells that accumulate the Hoechst dye.
compound,measurement,setting,value
"CNC(=O)[C@H]1O[C@@H](n2cnc3c(NCc4cccc(I)c4)ncnc32)[C@H](O)[C@@H]1O [IB-MECA, N^6-(3-iodobenzyl)-5′-N-methylcarboxamidoadenosine]",activity and synergy of adenosine receptor agonists,[1],active and synergistic
"OC[C@H]1O[C@H](n2cnc3c(NC4CC5CCC4C5)ncnc32)[C@H](O)[C@@H]1O (stereo partly drawn) [(S)-ENBA, S-N^6-(2-endo-norbornyl)adenosine]",activity and synergy of adenosine receptor agonists,[1],active and synergistic
"CCNC(=O)[C@H]1O[C@@H](n2cnc3c(N)nc(NCCc4ccc(CCC(=O)O)cc4)nc32)[C@H](O)[C@@H]1O [CGS-21680, 2-(4-(2-carboxyethyl)phenethylamino)-5′-N-ethylcarboxamidoadenosine]",Induction of apoptosis,"patient CLL cells; CGS-21680 0.05 μM, Roflumilast 0 μM (Table 50)",12
same,Induction of apoptosis,"patient CLL cells; CGS-21680 0.05 μM, Trequinsin 0 μM (Table 51)",16
same,Induction of apoptosis,"patient CLL cells; CGS-21680 0.15 μM, Roflumilast 0 μM (Table 50)",15
same,Induction of apoptosis,"patient CLL cells; CGS-21680 0.15 μM, Trequinsin 0 μM (Table 51)",16
same,Induction of apoptosis,"patient CLL cells; CGS-21680 […], Roflumilast 0 μM (Table 50)",25
same,Induction of apoptosis,"patient CLL cells; CGS-21680 […], Trequinsin 0 μM (Table 51)",27
"OC[C@H]1O[C@@H](n2cnc3c(NC4CCCC4)nc(Cl)nc32)[C@H](O)[C@@H]1O [2-chloro-N-6-cyclopentyladenosine, 2-chloro-N^6-cyclopentyladenosine]",activity and synergy of adenosine receptor agonists,[1],active and synergistic
"CNC(=O)[C@H]1O[C@@H](n2cnc3c(NCc4cccc(I)c4)nc(Cl)nc32)[C@H](O)[C@@H]1O [chloro-IB-MECA, 2-chloro-N^6-(3-iodobenzyl)-5′-N-methylcarboxamidoadenosine]",activity and synergy of adenosine receptor agonists,[1],active and synergistic

# Reference: US20090047243A1, “COMBINATIONS FOR THE TREATMENT OF B-CELL PROLIFERATIVE DISORDERS” (priority 2007, published 2009)
